Data: ChEMBL document CHEMBL1201862, “PubChem BioAssay data set” (2004)
Activity calls are given as the source filed them.

Biological target: Cytochrome P450 3A4 (Homo sapiens, UniProt P08684);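 note: CYP3A4 tested as one member of a cytochrome P450 panel screen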
Details: not given

Sequence of Cytochrome P450 3A4 (P08684 whole entry): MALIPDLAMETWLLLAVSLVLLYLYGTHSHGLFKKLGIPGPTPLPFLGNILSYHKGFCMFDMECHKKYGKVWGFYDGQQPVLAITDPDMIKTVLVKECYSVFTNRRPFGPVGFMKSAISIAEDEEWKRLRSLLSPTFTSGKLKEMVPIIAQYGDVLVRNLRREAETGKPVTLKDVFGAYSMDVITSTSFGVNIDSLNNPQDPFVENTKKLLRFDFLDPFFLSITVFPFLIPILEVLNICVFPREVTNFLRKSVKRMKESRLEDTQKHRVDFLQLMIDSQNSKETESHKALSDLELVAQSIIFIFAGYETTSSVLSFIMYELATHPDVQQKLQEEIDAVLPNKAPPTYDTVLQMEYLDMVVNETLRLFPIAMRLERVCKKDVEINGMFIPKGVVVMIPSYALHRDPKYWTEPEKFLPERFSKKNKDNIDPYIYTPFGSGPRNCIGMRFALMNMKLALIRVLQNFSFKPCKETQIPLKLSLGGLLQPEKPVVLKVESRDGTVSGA

Structure (SMILES) | AC50
COc1ccc(/C=N/NC(=S)NC2CCS(=O)(=O)C2)cc1OC (configuration not stated) | 22.4 µM (inconclusive)
Cc1c(C(=O)N/N=C/c2ccccc2)sc(=S)n1C | 25.1 µM (inconclusive)

Test system: not listed separately
Experiment: inhibitors of SNCA 5'UTR-driven reporter translation, confirmation, H4 neuroglioma cells, luminescence (AID 1988)
Format: functional, cell-based
Details: not given

Structure (SMILES) | EC50
CC(C)CCn1cnc2c(c1=O)c1nc3ccccc3nc1n2Cc1ccc2c(c1)OCO2 | > 120 µM (not active)
S=C(NCc1ccccc1)NCc1ccc(CNC(=S)NCc2ccccc2)cc1 | > 120 µM (not active)
CCc1c(C)nc(N)n2c(SCC(=O)Nc3ccccc3OC)nnc12 | > 120 µM (not active)
CCS(=O)(=O)c1nc(S(=O)(=O)c2ccc(C)cc2)c(N2CC(C)CC(C)C2)s1 (configuration not stated) | > 120 µM (not active)
CCC(C)[C@H](NC(=O)N1CCCC1)C(=O)O (some centres not stated) | > 120 µM (not active)
COc1ccc(CN2CCN(Cc3cccn3-c3ncccn3)CC2CCO)c(C)c1C (configuration not stated) | 12.1 µM (active)
Cc1cccc(N2CCN(C(=O)CC(NC(=O)c3ccccc3)c3ccccc3)CC2C)c1 (configuration not stated) | > 120 µM (not active)
O=c1c2[nH]cnc2n(-c2ccc(F)cc2)c(=O)n1Cc1ccccc1 | > 120 µM (not active)
CCCOc1ccc(NC(=O)CC2C(=O)N(c3ccc(OCC)cc3)C(=S)N2C2CC2)cc1 (configuration not stated) | 12.1 µM (active)

Test system: not listed separately
Experiment: Luminescence Cell-Based Dose Retest to Confirm Inhibitors of Cancer Stem Cells. [Related pubchem assays (depositor defined):AID2717, AID2721]
Format: functional
Details: Homo sapiens

Structure (SMILES) | AC50
Cc1cc(NCCCn2ccnc2)n2nc(C)c(-c3ccc(Cl)cc3)c2n1 | 6.35 µM (active)
CCOC(=O)C1=C(C)N2C(=C(C#N)[C@@H]1c1ccc(C(=O)OC)cc1)SC[C@@]2(O)C(C)(C)C | 0.33 µM (active)
O=C(COCC(=O)Nc1cccc(C(F)(F)F)c1)Nc1cccc(C(F)(F)F)c1 | 5.16 µM (active)
COc1cc(/C=N/NC(=O)c2ccc(CN(C)S(=O)(=O)c3ccc(C)cc3)cc2)ccc1O | 2.5 µM (active)

Test system: not listed separately
Experiment: Luminescence Cell-Based Dose Response HTS to Identify Inhibitors of 5'UTR Stem-Loop Driven Prion Protein mRNA Translation in H4 Neuroglioblastoma Cells. [Related pubchem assays: 1827 (Project Summary), 1813 (Primary HTS)]
Format: functional
Details: not given

Structure (SMILES) | EC50
CC(C)CCn1cnc2c(c1=O)c1nc3ccccc3nc1n2Cc1ccc2c(c1)OCO2 | > 120 µM (not active)
S=C(NCc1ccccc1)NCc1ccc(CNC(=S)NCc2ccccc2)cc1 | > 120 µM (not active)
CCc1c(C)nc(N)n2c(SCC(=O)Nc3ccccc3OC)nnc12 | > 120 µM (not active)
CCS(=O)(=O)c1nc(S(=O)(=O)c2ccc(C)cc2)c(N2CC(C)CC(C)C2)s1 (configuration not stated) | > 120 µM (not active)
CCC(C)[C@H](NC(=O)N1CCCC1)C(=O)O (some centres not stated) | > 120 µM (not active)
COc1ccc(CN2CCN(Cc3cccn3-c3ncccn3)CC2CCO)c(C)c1C (configuration not stated) | > 120 µM (not active)
Cc1cccc(N2CCN(C(=O)CC(NC(=O)c3ccccc3)c3ccccc3)CC2C)c1 (configuration not stated) | > 120 µM (not active)
O=c1c2[nH]cnc2n(-c2ccc(F)cc2)c(=O)n1Cc1ccccc1 | 39.3 µM (active)
CCCOc1ccc(NC(=O)CC2C(=O)N(c3ccc(OCC)cc3)C(=S)N2C2CC2)cc1 (configuration not stated) | > 120 µM (not active)
Nc1ccc(C(=O)n2c3ccccc3c3ccccc32)cc1 | 9.6 µM (active)

Biological target: Cytochrome P450 2D6 (Homo sapiens, UniProt P10635);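 note: CYP2D6 member of a cytochrome P450 panel assay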
Details: not given

Sequence of Cytochrome P450 2D6 (P10635 whole entry): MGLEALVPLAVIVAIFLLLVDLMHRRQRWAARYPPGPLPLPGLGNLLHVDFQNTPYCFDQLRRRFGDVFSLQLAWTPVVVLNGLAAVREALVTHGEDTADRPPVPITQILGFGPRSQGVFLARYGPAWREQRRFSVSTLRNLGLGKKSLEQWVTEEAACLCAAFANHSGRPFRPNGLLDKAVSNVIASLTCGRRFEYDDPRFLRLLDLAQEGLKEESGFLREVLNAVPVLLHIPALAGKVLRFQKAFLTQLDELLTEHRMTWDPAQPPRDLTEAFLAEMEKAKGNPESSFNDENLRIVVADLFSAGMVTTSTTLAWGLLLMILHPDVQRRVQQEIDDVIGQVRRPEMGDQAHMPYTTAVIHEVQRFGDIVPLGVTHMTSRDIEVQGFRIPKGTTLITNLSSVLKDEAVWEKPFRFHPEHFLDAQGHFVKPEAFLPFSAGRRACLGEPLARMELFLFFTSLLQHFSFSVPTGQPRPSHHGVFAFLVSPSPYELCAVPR

Structure (SMILES) | AC50
Cc1c(C(=O)N/N=C/c2ccccc2)sc(=S)n1C | 10 nM (inconclusive)

Biological target: Cytochrome P450 2C19 (Homo sapiens, UniProt P33261)
Experiment: Cytochrome panel assay with activity outcomes. Panel member name: p450-cyp2c19 Compounds with AC50 equal or less than 10 uM are considered active
Format: functional
Details: read-out: AC50

Sequence of Cytochrome P450 2C19 (P33261 whole entry): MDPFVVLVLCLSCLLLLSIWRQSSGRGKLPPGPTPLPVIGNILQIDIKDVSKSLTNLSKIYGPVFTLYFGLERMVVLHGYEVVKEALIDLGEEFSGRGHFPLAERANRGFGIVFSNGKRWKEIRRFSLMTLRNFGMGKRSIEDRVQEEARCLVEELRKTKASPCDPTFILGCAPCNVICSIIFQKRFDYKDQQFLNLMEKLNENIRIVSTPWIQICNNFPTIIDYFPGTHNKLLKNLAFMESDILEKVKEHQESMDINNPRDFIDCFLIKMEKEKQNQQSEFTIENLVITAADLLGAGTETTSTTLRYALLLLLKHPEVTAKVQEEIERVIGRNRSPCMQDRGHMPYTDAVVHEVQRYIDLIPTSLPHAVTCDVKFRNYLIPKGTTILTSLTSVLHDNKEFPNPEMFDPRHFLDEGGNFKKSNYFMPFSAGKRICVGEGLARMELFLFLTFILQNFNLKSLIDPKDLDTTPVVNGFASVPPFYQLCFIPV

Structure (SMILES) | AC50
Cc1c(C(=O)N/N=C/c2ccccc2)sc(=S)n1C | 25.1 µM (inconclusive)

Test system: not listed separately
Experiment: inhibitors of firefly luciferase expression or activity, dose response, H4 neuroglioma cells, luminescence (AID 1990)
Format: functional, cell-based
Details: not given

Structure (SMILES) | EC50
CC(C)CCn1cnc2c(c1=O)c1nc3ccccc3nc1n2Cc1ccc2c(c1)OCO2 | > 120 µM (not active)
S=C(NCc1ccccc1)NCc1ccc(CNC(=S)NCc2ccccc2)cc1 | > 120 µM (not active)
CCc1c(C)nc(N)n2c(SCC(=O)Nc3ccccc3OC)nnc12 | > 120 µM (not active)
CCS(=O)(=O)c1nc(S(=O)(=O)c2ccc(C)cc2)c(N2CC(C)CC(C)C2)s1 (configuration not stated) | > 120 µM (not active)
CCC(C)[C@H](NC(=O)N1CCCC1)C(=O)O (some centres not stated) | > 120 µM (not active)
COc1ccc(CN2CCN(Cc3cccn3-c3ncccn3)CC2CCO)c(C)c1C (configuration not stated) | > 120 µM (not active)
Cc1cccc(N2CCN(C(=O)CC(NC(=O)c3ccccc3)c3ccccc3)CC2C)c1 (configuration not stated) | > 120 µM (not active)
O=c1c2[nH]cnc2n(-c2ccc(F)cc2)c(=O)n1Cc1ccccc1 | > 120 µM (not active)
CCCOc1ccc(NC(=O)CC2C(=O)N(c3ccc(OCC)cc3)C(=S)N2C2CC2)cc1 (configuration not stated) | > 120 µM (not active)
Nc1ccc(C(=O)n2c3ccccc3c3ccccc32)cc1 | 9.05 µM (active)
